The source made the active and inactive calls. No cut-off for these calls is given here.
Key:
Assay type in all cases: functional, cell-based
EA.hy 926 [1] = assay: Inhibition of tube formation in human EAhy926 cells at 50 uM after 24 hrs by phase-contrast microscopy
EA.hy 926 [2] = assay: Inhibition of tube formation in human EAhy926 cells after 24 hrs by phase-contrast microscopy
EA.hy 926 [3] = assay: Inhibition of tube formation in human EAhy926 cells at 10 uM pre-incubated for 12 hrs measured after 24 hrs by phase-contrast microscopy
EA.hy 926 [4] = assay: Inhibition of tube formation in human EAhy926 cells at 25 uM after 24 hrs by phase-contrast microscopy
EA.hy 926 [5] = assay: Inhibition of tube formation in human EAhy926 cells at 20 uM after 24 hrs by phase-contrast microscopy
EA.hy 926 [6] = assay: Inhibition of tube formation in human EAhy926 cells at 40 uM after 24 hrs by phase-contrast microscopy

CC/C=C\C/C=C\C/C=C\C/C=C\C/C=C\C/C=C\CCC(=O)O
Activity (EA.hy 926 [1]): inactive

CC/C=C\C/C=C\C/C=C\C/C=C\C/C=C\CCCC(=O)O
Activity (EA.hy 926 [1]): inactive

CCCCC/C=C\C=C\C(O)C/C=C\C/C=C\C/C=C\CCCCC(=O)O (stereo not given)
Activity (EA.hy 926 [2]): Dose-dependent effect | Activity (EA.hy 926 [3]): Active

CCCCC/C=C/C=C/C(O)CCCCCCCC(=O)O (stereo not given)
Activity (EA.hy 926 [4]): Active

CCCCC/C=C\C=C\C(O)C/C=C\C/C=C\CCCC(=O)O (stereo not given)
Activity (EA.hy 926 [5]): Active | Activity (EA.hy 926 [6]): Active

Cc1cccc(Nc2cc(Cl)nc(SCC(=O)O)n2)c1C
Activity (EA.hy 926 [3]): Active

CCCCC/C=C\C[C@@H](O)/C=C/C=C/C=C\[C@@H](O)CCCC(=O)O
Activity (EA.hy 926 [3]): Active

CC1(COc2ccc(CC3SC(=O)NC3=O)cc2)CCCCC1 (stereo not given)
Activity (EA.hy 926 [3]): Active

From ChEMBL document CHEMBL1154510, “A new antiangiogenic C24 oxylipin from the soft coral Sinularia numerosa” (Bioorg Med Chem, 2009)
